For 17 molecules, TGI results are on record in PubChem BioAssay (NCI).

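These data come from cells grown in 96-well plates and exposed to compound for 48 hours at five concentrations. TGI: concentration producing complete growth inhibition.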

Test in all cases: inhibition of tumour cell growth, NCI panel, 48 h
In experiment [1] the test system is U251 CNS.
The test system of experiment [2] is A498 renal.
The test system of experiment [3] is MDA-N.
Experiment [4] deals with SK-MEL-28 melanoma.
Experiment [5] deals with OVCAR-5 ovarian.
Experiment [6] has as its system MOLT-4 leukemia.
Experiment [7] relates to MALME-3M melanoma.
The test system of experiment [8] is ACHN renal.

Take `CCOC(=O)N1CCN(Cc2cc(=O)n3ccc(C)cc3n2)CC1`: the TGI in experiment [1], in experiment [2], in experiment [3], in experiment [4], in experiment [5] and in experiment [6] was more than 100 µM throughout. In addition, the TGI in experiment [7] and in experiment [8] was more than 100 µM throughout.

Consider `CC(=O)Nn1c(=S)[nH]c2ccccc21`, for which the TGI in experiment [1], in experiment [2], in experiment [3], in experiment [4], in experiment [5] and in experiment [6] was more than 100 µM throughout. Further, the TGI in experiment [7] and in experiment [8] was more than 100 µM throughout.

For the molecule `NS(=O)(=O)c1nnc(NC(=O)Nc2ccc(Cl)c(Cl)c2)s1`, the TGI in experiment [1] was more than 100 µM; in experiment [2], 43.9 µM; in experiment [3], 44.8 µM; in experiment [4] it was 39.3 µM; in experiment [5], 75 µM; in experiment [6], 84.2 µM. The TGI in experiment [7] was 39.9 µM; in experiment [8] it was more than 100 µM.

As to `CC(=O)Nc1nc(NC(C)=O)c2[nH]c(CO)nc2n1`, the TGI in experiment [1], in experiment [2], in experiment [3], in experiment [4], in experiment [5] and in experiment [6] was more than 100 µM in each case. Moreover, the TGI in experiment [7] and in experiment [8] was more than 100 µM each time.

On to `COc1ccc(-c2[nH]c3c4c(nc5c(c24)C(=O)CC(C)(C)C5)CC(C)(C)C3)cc1`, for which the TGI was more than 100 µM in experiment [1]; more than 100 µM in experiment [2]; more than 100 µM in experiment [3]; more than 100 µM in experiment [4]; more than 100 µM in experiment [5]; 94 µM in experiment [6]. Besides, the TGI in experiment [7] and in experiment [8] was more than 100 µM in each case.

For the molecule `Cc1ccnc(NS(=O)(=O)c2ccc(N=[N+]=[N-])cc2)n1`, the TGI in experiment [1] is more than 100 µM; in experiment [2], more than 100 µM; in experiment [3], more than 100 µM; in experiment [4], more than 100 µM; in experiment [5], more than 100 µM; in experiment [6] it was more than 60.4 µM. Also, the TGI in experiment [7] and in experiment [8] was more than 100 µM throughout.

As to `Cc1cc(-c2nc3ccc(F)cc3s2)ccc1NC(=O)[C@H](C)N`, the TGI in experiment [1] stood at 9.06 µM; in experiment [2], 21.7 µM; in experiment [3] it was 6.19 µM; in experiment [4], 29.3 µM; in experiment [5], 21.7 µM; in experiment [6], 12.8 µM. Further, the TGI in experiment [7] was 36.2 µM; in experiment [8] it was 22.9 µM.

Turning to `C[C@]12CCC3C4=C(CCC3C1CCC2=O)C(=O)[C@H]1O[C@H]1C4=O` (stereo partly specified), the TGI stood at 8.38 µM in experiment [1]; 31.1 µM in experiment [2]; 19.4 µM in experiment [3]; 25.4 µM in experiment [4]; 10.4 µM in experiment [5]; 4.32 µM in experiment [6]. Also, the TGI amounted to 37.5 µM in experiment [7] and 6.77 µM in experiment [8].

Take `COC(=O)C1=C(C(=O)OC)SC(=C2SCSC3=C2SC(C(=O)OC)=C(C(=O)OC)C32SC3=C(CCCC3)S2)S1`: the TGI in experiment [1], in experiment [2], in experiment [3], in experiment [4], in experiment [5] and in experiment [6] was more than 100 µM throughout. In addition, the TGI in experiment [7] and in experiment [8] was more than 100 µM in each case.

On to `CCOC(=O)c1c(CN2CCCC2)n(-c2ccccc2)c2cc(Br)c(O)cc12`, for which the TGI stood at 30.4 µM in experiment [1]; 30.6 µM in experiment [2]; 32.2 µM in experiment [3]; 29.7 µM in experiment [4]; 36.5 µM in experiment [5]; 41.7 µM in experiment [6]. The TGI in experiment [7] came to 35.5 µM; in experiment [8], 44.9 µM.

Regarding `O=C(/C=C/c1ccccc1)C[C@@H](O)C[C@@H]1CC=CC(=O)O1`, the TGI in experiment [1] stood at 21.7 µM; in experiment [2], 30.9 µM; in experiment [3] it was 14.3 µM; in experiment [4], 24.9 µM; in experiment [5], 36.4 µM; in experiment [6], 12.5 µM. For the same molecule, the TGI in experiment [7] was 30.6 µM; in experiment [8] it was 30.5 µM.

With `CC(=O)c1c2c(c3ccccc3c1O)O[C@@H]1OCC[C@H]21`, the TGI in experiment [1], in experiment [2], in experiment [3], in experiment [4], in experiment [5] and in experiment [6] was more than 100 µM in each case. Also, the TGI in experiment [7] and in experiment [8] was more than 100 µM in each case.

For `O=[N+]([O-])c1cc(C=NC23CC4CC(CC(C4)C2)C3)ccc1Cl`, the TGI in experiment [1] was 41.6 µM; in experiment [2] it was more than 100 µM; in experiment [3] it was 32.3 µM; in experiment [4], 38 µM; in experiment [5], more than 100 µM; in experiment [6], 27 µM. Besides, the TGI in experiment [7] was found to be 42.5 µM; in experiment [8], 56.9 µM.

In the case of `CC1CN(C)c2ccccc2N=C1NN` (stereo unspecified), the TGI in experiment [1], in experiment [2], in experiment [3], in experiment [4], in experiment [5] and in experiment [6] was more than 100 µM each time. Besides, the TGI in experiment [7] and in experiment [8] was more than 100 µM throughout.

Take `N#CC(Cc1ccccc1)N(CCC1=CCCCC1)C(c1ccccc1)c1ccccc1` (stereo unspecified): the TGI in experiment [1], in experiment [2], in experiment [3], in experiment [4], in experiment [5] and in experiment [6] was more than 100 µM each time. Besides, the TGI in experiment [7] and in experiment [8] was more than 100 µM in each case.

Turning to `C/C(=C\CBr)CCC(Br)C(C)(C)Br` (stereo unspecified), the TGI in experiment [1], in experiment [2], in experiment [3], in experiment [4], in experiment [5] and in experiment [6] was more than 100 µM throughout. In addition, the TGI in experiment [7] and in experiment [8] was more than 100 µM each time.

Consider `CCN(CC)C(=S)N/N=C/c1cc([N+](=O)[O-])ccc1O`, for which the TGI in experiment [1] was more than 100 µM; in experiment [2], 7.47 µM; in experiment [3] it was more than 100 µM; in experiment [4], more than 100 µM; in experiment [5] it was more than 100 µM; in experiment [6] it was 25.1 µM. Besides, the TGI in experiment [7] was 23.3 µM; in experiment [8], 25.1 µM.
